Data reported in PubChem BioAssay (NCI).
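Protocol summary: plate cells (96-well), add compound at 5 concentrations, incubate 48 h, interpolate endpoints linearly. At the TGI there is no net growth.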 Where a SMILES comes first, the peptide text is derived from it. [ ]: non-standard residue; d: D form. The star is where a group is joined. Phe(4-NO2) = N[CH](Cc1ccc([N+](=O)[O-])cc1)C(=O)O; Boc = CC(C)(C)OC(=O)*

What was measured:
Test in all cases: NCI tumour cell line growth inhibition, 48 h
[1] = test system: MDA-MB-231 breast
[2] = test system: 786-0 renal
[3] = test system: RPMI-8226 leukemia
[4] = test system: SK-OV-3 ovarian
[5] = test system: MDA-MB-435
[6] = test system: SK-MEL-2 melanoma
[7] = test system: NCI-H522 lung
[8] = test system: UO-31 renal
[9] = test system: COLO 205 colon
[10] = test system: DU-145 prostate
[11] = test system: EKVX NSCLC
[12] = test system: HOP-92 NSCLC
[13] = test system: KM12 colon
[14] = test system: NCI-H226 lung
[15] = test system: A498 renal
[16] = test system: NCI-H23 lung
[17] = test system: PC-3 prostate
[18] = test system: SF-295 CNS
[19] = test system: ACHN renal
[20] = test system: OVCAR-8 ovarian
[21] = test system: T-47D breast
[22] = test system: HT29 colon
[23] = test system: HS 578T breast
[24] = test system: CCRF-CEM leukemia
[25] = test system: SNB-19 CNS
[26] = test system: SN12C renal
[27] = test system: SW-620 colon
[28] = test system: M14 melanoma
[29] = test system: SF-268 CNS
[30] = test system: LOX IMVI melanoma
[31] = test system: CAKI-1 renal
[32] = test system: K-562 leukemia
[33] = test system: OVCAR-3 ovarian
[34] = test system: HCT-15 colon
[35] = test system: UACC-257 melanoma
[36] = test system: NCI/ADR-RES ovarian
[37] = test system: OVCAR-5 ovarian
[38] = test system: HCT-116 colon
[39] = test system: RXF 393 renal
[40] = test system: TK-10 renal
[41] = test system: HCC-2998 colon
[42] = test system: MOLT-4 leukemia
[43] = test system: SF-539 CNS
[44] = test system: MALME-3M melanoma
[45] = test system: SK-MEL-5 melanoma
[46] = test system: SNB-75 CNS
[47] = test system: SK-MEL-28 melanoma
[48] = test system: NCI-H460 lung
[49] = test system: A549 NSCLC
[50] = test system: SR leukemia
[51] = test system: UACC-62 melanoma
[52] = test system: OVCAR-4 ovarian
[53] = test system: MDA-N
[54] = test system: MCF7 breast
[55] = test system: HOP-62 NSCLC
[56] = test system: IGROV1 ovarian
[57] = test system: HL-60(TB) leukemia
[58] = test system: U251 CNS

Question: How did the TGI [1] turn out when COC(=O)CCC(NC(=O)OC(C)(C)C)C(=O)NC(Cc1ccc([N+](=O)[O-])cc1)C(=O)NC(CCC(=O)OC)C(=O)OC (stereo unspecified) (Boc-Glu(OMe)-[Phe(4-NO2)]-Glu(OMe)-OMe; configuration not given here) was run?
Answer: > 100 µM

Question: What about the TGI [2] of the same compound?
Answer: > 100 µM

Question: And the TGI [3]?
Answer: 67.3 µM

Question: What about the TGI [4] of the same compound?
Answer: > 100 µM

Question: What about the TGI [5] of the same compound?
Answer: > 100 µM

Question: What about the TGI [6] of the same compound?
Answer: > 100 µM

Question: What about the TGI [7] of the same compound?
Answer: > 100 µM

Question: What about the TGI [8] of the same compound?
Answer: > 100 µM

Question: What about the TGI [9] of the same compound?
Answer: > 100 µM

Question: What about the TGI [10] of the same compound?
Answer: > 100 µM

Question: And the TGI [11]?
Answer: > 100 µM

Question: What about the TGI [12] of the same compound?
Answer: > 100 µM

Question: And the TGI [13]?
Answer: > 100 µM

Question: What about the TGI [14] of the same compound?
Answer: > 100 µM

Question: What about the TGI [15] of the same compound?
Answer: > 100 µM

Question: And the TGI [16]?
Answer: > 100 µM

Question: What about the TGI [17] of the same compound?
Answer: > 100 µM

Question: And the TGI [18]?
Answer: > 100 µM

Question: And the TGI [19]?
Answer: > 100 µM

Question: What about the TGI [20] of the same compound?
Answer: > 100 µM

Question: And the TGI [21]?
Answer: > 100 µM

Question: And the TGI [22]?
Answer: > 100 µM

Question: And the TGI [23]?
Answer: > 100 µM

Question: And the TGI [24]?
Answer: 36.8 µM

Question: What about the TGI [25] of the same compound?
Answer: > 100 µM

Question: And the TGI [26]?
Answer: > 100 µM

Question: And the TGI [27]?
Answer: > 100 µM

Question: What about the TGI [28] of the same compound?
Answer: > 100 µM

Question: And the TGI [29]?
Answer: > 100 µM

Question: What about the TGI [30] of the same compound?
Answer: 80.2 µM

Question: What about the TGI [31] of the same compound?
Answer: > 100 µM

Question: And the TGI [32]?
Answer: > 100 µM

Question: What about the TGI [33] of the same compound?
Answer: > 100 µM

Question: And the TGI [34]?
Answer: > 100 µM

Question: And the TGI [35]?
Answer: 25.3 µM

Question: And the TGI [36]?
Answer: > 100 µM

Question: And the TGI [37]?
Answer: > 100 µM

Question: And the TGI [38]?
Answer: > 100 µM

Question: What about the TGI [39] of the same compound?
Answer: > 100 µM

Question: What about the TGI [40] of the same compound?
Answer: > 100 µM

Question: What about the TGI [41] of the same compound?
Answer: > 100 µM

Question: What about the TGI [42] of the same compound?
Answer: 49.9 µM

Question: What about the TGI [43] of the same compound?
Answer: > 100 µM

Question: What about the TGI [44] of the same compound?
Answer: > 100 µM

Question: What about the TGI [45] of the same compound?
Answer: > 100 µM

Question: What about the TGI [46] of the same compound?
Answer: 80.9 µM

Question: And the TGI [47]?
Answer: > 100 µM

Question: What about the TGI [48] of the same compound?
Answer: > 100 µM

Question: And the TGI [49]?
Answer: > 100 µM

Question: And the TGI [50]?
Answer: 51.6 µM

Question: And the TGI [51]?
Answer: > 100 µM

Question: What about the TGI [52] of the same compound?
Answer: > 100 µM

Question: What about the TGI [53] of the same compound?
Answer: > 100 µM

Question: What about the TGI [54] of the same compound?
Answer: > 100 µM

Question: And the TGI [55]?
Answer: > 100 µM

Question: And the TGI [56]?
Answer: > 100 µM

Question: Which TGI [1] does the source give for O=C1N(CN2CCOCC2)CN(CN2CCOCC2)C(=O)N1Cc1ccc(CN2C(=O)N(CN3CCOCC3)CN(CN3CCOCC3)C2=O)cc1 here?
Answer: > 100 µM

Question: What about the TGI [2] of the same compound?
Answer: > 100 µM

Question: And the TGI [3]?
Answer: 89.5 µM

Question: What about the TGI [4] of the same compound?
Answer: > 100 µM

Question: What about the TGI [5] of the same compound?
Answer: > 100 µM

Question: What about the TGI [6] of the same compound?
Answer: 39.8 µM

Question: What about the TGI [7] of the same compound?
Answer: > 100 µM

Question: And the TGI [8]?
Answer: > 100 µM

Question: What about the TGI [9] of the same compound?
Answer: > 100 µM

Question: What about the TGI [10] of the same compound?
Answer: > 100 µM

Question: What about the TGI [11] of the same compound?
Answer: > 100 µM

Question: What about the TGI [12] of the same compound?
Answer: > 100 µM

Question: And the TGI [13]?
Answer: > 100 µM

Question: And the TGI [14]?
Answer: > 100 µM

Question: And the TGI [15]?
Answer: > 100 µM

Question: And the TGI [16]?
Answer: > 100 µM

Question: And the TGI [17]?
Answer: > 100 µM

Question: What about the TGI [18] of the same compound?
Answer: > 100 µM

Question: What about the TGI [19] of the same compound?
Answer: > 100 µM

Question: And the TGI [20]?
Answer: > 100 µM

Question: What about the TGI [21] of the same compound?
Answer: > 100 µM

Question: What about the TGI [22] of the same compound?
Answer: > 100 µM

Question: What about the TGI [23] of the same compound?
Answer: > 100 µM

Question: What about the TGI [24] of the same compound?
Answer: > 100 µM

Question: And the TGI [25]?
Answer: > 100 µM

Question: What about the TGI [26] of the same compound?
Answer: > 100 µM

Question: What about the TGI [27] of the same compound?
Answer: > 100 µM

Question: What about the TGI [28] of the same compound?
Answer: > 100 µM

Question: And the TGI [29]?
Answer: > 100 µM

Question: And the TGI [30]?
Answer: 76.4 µM

Question: And the TGI [31]?
Answer: > 100 µM

Question: And the TGI [33]?
Answer: > 100 µM

Question: What about the TGI [34] of the same compound?
Answer: > 100 µM

Question: What about the TGI [35] of the same compound?
Answer: > 100 µM

Question: And the TGI [36]?
Answer: > 100 µM

Question: And the TGI [37]?
Answer: > 100 µM

Question: What about the TGI [38] of the same compound?
Answer: > 100 µM

Question: And the TGI [40]?
Answer: > 100 µM

Question: What about the TGI [41] of the same compound?
Answer: > 100 µM

Question: What about the TGI [42] of the same compound?
Answer: > 100 µM

Question: And the TGI [57]?
Answer: > 100 µM

Question: What about the TGI [43] of the same compound?
Answer: > 100 µM

Question: And the TGI [45]?
Answer: > 100 µM

Question: What about the TGI [46] of the same compound?
Answer: > 100 µM

Question: What about the TGI [47] of the same compound?
Answer: > 100 µM

Question: And the TGI [48]?
Answer: > 100 µM

Question: What about the TGI [49] of the same compound?
Answer: > 100 µM

Question: What about the TGI [50] of the same compound?
Answer: > 100 µM

Question: And the TGI [51]?
Answer: 85.4 µM

Question: And the TGI [52]?
Answer: > 100 µM

Question: What about the TGI [53] of the same compound?
Answer: > 100 µM

Question: And the TGI [54]?
Answer: > 100 µM

Question: And the TGI [55]?
Answer: > 100 µM

Question: What about the TGI [58] of the same compound?
Answer: > 100 µM

Question: What about the TGI [56] of the same compound?
Answer: > 100 µM
